The results in this text go back to patent US20260234144A1 (TAY THERAPEUTICS LIMITED, priority 2023, published 2026).

A value given as a limit tells only on which side of the number the result lay.

This test has as its system R223X stop codon in the mutated luciferase gene, ADXC8 luciferase reporter cell line. As to the kind of experiment: cells. Type of test: cell-based. As to conditions: ADXC8 cells, 24 hours; for EC (100% of 200 uM G418 response) / Emax: 24 h; for EC (100% of 200 uM G418 response): read-out: pC100%, negative logarithm of the concentration giving the same response as 200 μM G418; for Emax: read-out: Fold Over Control, maximum fold response relative to 200 μM G418; for Fold Over Control: maximum fold response relative to 200 μM G418; for pC100%: negative logarithm of the concentration giving the same response as 200 μM G418.

As for `CNc1cc(N[C@H]2CNC[C@H]2F)nc2nc3c(c(C)c12)CCC3` [Example 633], the EC (100% of 200 uM G418 response) was in the range of 1 to 10 µM.

In the case of `Cc1cc(C)c2c(N)nc(NC3CCN(Cc4cc(F)cc(F)c4O)CC3)nc2n1` [Example 569], the Emax fell in the range of 100 to 3000% and the EC (100% of 200 uM G418 response) lay in the range of 1 to 10 µM.

`Cc1nc2nc(NC3CCN(C)CC3)nc(N)c2cc1Br` [Example 21, 6-bromo-7-methyl-N-(1-methylpiperidin-4-yl)pyrido[2,3-d]pyrimidine-2,4-diamine]: the Emax lay within 100 to 3000% and the EC (100% of 200 uM G418 response) fell in the range of 1 to 10 µM.

As for `CNc1nc(NC2C3CNC2C3)nc2nc(C)cc(C)c12` (single isomer, unassigned) [Example 448], the “Fold Over Control” value is given as “# (Fold over Ctrl ≥ 0 ≤ 1)” and the pC100% entry is reported as “* (pC100 ≤ 4.5)”.

In the case of `CNc1nc(NC2CC3CC2CN3C)nc2nc(C)cc(C)c12` (single isomer, unassigned) [Example 432], the “Fold Over Control” value is “## (Fold over Ctrl > 1 ≤ 30)” and the pC100% result was “++ (pC100% > 5.0 ≤ 6.0)”.

`CNc1cc(N[C@H]2CN(C)C[C@@H]2OC)nc2nc3c(c(C)c12)CCC3` [Example 421]: the Emax was 100 to 3000% and the EC (100% of 200 uM G418 response) was in the range of 0.1 to 1 µM.

Turning to `CNc1nc(N[C@@H]2CCN(C)C2)nc2nc3c(c(C)c12)CCC3` [Example 336], the Emax was in the range of 100 to 3000% and the EC (100% of 200 uM G418 response) was 0.1 to 1 µM.

`CNc1nc(N[C@@H]2CNC[C@@H]2O)nc2nc3c(c(C)c12)CCC3` [Example 657]: the Emax was in the range of 100 to 3000% and the EC (100% of 200 uM G418 response) fell in the range of 1 to 10 µM.

Turning to `Cc1nc2nc(N[C@@H]3CCNC3)nc(N)c2c2c1CCC2` [Example 295], the EC (100% of 200 uM G418 response) is 0.1 to 1 µM.

With `CN1CCC(Nc2nc(N)c3c(O)ccnc3n2)CC1` [Example 244, 4-amino-2-((1-methylpiperidin-4-yl)amino)pyrido[2,3-d]pyrimidin-5-ol], the Emax lay within 0 to 100% and the EC (100% of 200 uM G418 response) was over 100 µM.

For the compound `Cc1cc(C)c2c(N)nc(NCCCN3CC(F)C3)nc2n1` [Example 186], the Emax is 100 to 3000% and the EC (100% of 200 uM G418 response) is 10 to 100 µM.

For the compound `Cc1cc(C)c2c(N)nc(N[C@H]3CCCC[C@@H]3N(C)C)nc2n1` [Example 155], the Emax fell in the range of 0 to 100% and the EC (100% of 200 uM G418 response) was over 31.6 µM.

As for `CNc1nc(N[C@H]2CNC[C@@H]2F)nc2nc(C)c3c(c12)CCC3` [Example 346], the Emax is 100 to 3000% and the EC (100% of 200 uM G418 response) was in the range of 0.1 to 1 µM.

On to `Cc1cc(C)c2c(NCCC(=O)N(C)C)nc(NC3CCN(C)CC3)nc2n1` [Example 354], for which the Emax lay within 0 to 100% and the EC (100% of 200 uM G418 response) is over 31.6 µM.

For the compound `CNc1cc(N[C@H]2CNC[C@H]2OC)nc2nc3c(c(C)c12)CCC3` [Example 617], the Emax was in the range of 100 to 3000% and the EC (100% of 200 uM G418 response) fell in the range of 1 to 10 µM.

On to `CNc1nc(NC2CCN3CCCC3C2)nc2nc(C)cc(C)c12` (single isomer, unassigned) [Example 442], for which the EC (100% of 200 uM G418 response) is 1 to 10 µM.

As for `Cc1cc(C)c2c(N)nc(NCCN3CCC4(CCOCC4)C3)nc2n1` [Example 165], the Emax is 0 to 100% and the EC (100% of 200 uM G418 response) is over 31.6 µM.

For the compound `COCCN1CC[C@@H](Nc2nc(N)c3c(C)cc(C)nc3n2)C1` [Example 223, (R)—N^2-(1-(2-methoxyethyl)pyrrolidin-3-yl)-5,7-dimethylpyrido[2,3-d]pyrimidine-2,4-diamine], the Emax was 100 to 3000% and the EC (100% of 200 uM G418 response) is 10 to 100 µM.

As to `CN1CCC(Nc2nc(N)c3ccc(-c4ccccc4N)nc3n2)CC1` [Example 113], the Emax lay within 100 to 3000% and the EC (100% of 200 uM G418 response) was 10 to 100 µM.

Consider `Cc1cc(C)c2c(NCc3cccnc3)nc(NC3CCN(C)CC3)nc2n1` [Example 318], for which the Emax was 0 to 100% and the EC (100% of 200 uM G418 response) was over 31.6 µM.

As to `Cc1cc(C)c2c(N)nc(NCCCN3CCCCC3)nc2n1` [Example 7, 5,7-dimethyl-N^2-(3-(piperidin-1-yl)propyl)pyrido[2,3-d]pyrimidine-2,4-diamine], the Emax fell in the range of 100 to 3000% and the EC (100% of 200 uM G418 response) is 1 to 10 µM.

Consider `Cc1cnc2nc(NC3CCN(C)CC3)nc(N)c2c1` [Example 4, 6-methyl-N^2-(1-methylpiperidin-4-yl)pyrido[2,3-d]pyrimidine-2,4-diamine], for which the Emax was 100 to 3000% and the EC (100% of 200 uM G418 response) lay within 10 to 100 µM.

`Cc1cc(C)c2c(N)nc(NCCCN(C)C)nc2n1` [Example 154]: the EC (100% of 200 uM G418 response) was in the range of 1 to 10 µM.

As to `Cc1cc(C)c2c(N)nc(N[C@@H]3CN[C@@H](C)C3)nc2n1` [Example 349], the Emax was in the range of 100 to 3000% and the EC (100% of 200 uM G418 response) was in the range of 10 to 100 µM.

On to `CNc1nc(NC2CCN(Cc3ccccc3)CC2)nc2nc3c(c(C)c12)CCC3` [Example 605], for which the Emax is 100 to 3000% and the EC (100% of 200 uM G418 response) fell in the range of 0.1 to 1 µM.

On to `CNc1nc(N[C@@H]2CCNC2)nc2nc(C)c(Cl)c(C)c12` [Example 358], for which the Emax lay within 100 to 3000% and the EC (100% of 200 uM G418 response) fell in the range of 0.1 to 1 µM.

As to `Cc1nc2nc(NC3CCN(Cc4ccc(C#N)c(F)c4)CC3)nc(N)c2c2c1CCC2` [Example 528], the Emax was in the range of 100 to 3000% and the EC (100% of 200 uM G418 response) is 0.1 to 1 µM.

For the compound `COCc1ccccc1-c1ccc2c(N)nc(NC3CCN(C)CC3)nc2n1` [Example 58], the Emax was in the range of 100 to 3000% and the EC (100% of 200 uM G418 response) lay in the range of 10 to 100 µM.

Regarding `CN1CCC(Nc2nc(N)c3ccc(-c4ccn(C)n4)nc3n2)CC1` [Example 79], the Emax fell in the range of 0 to 100% and the EC (100% of 200 uM G418 response) was over 100 µM.

For the compound `CN1CCC(Nc2nc(N)c3ccc(C(F)(F)F)nc3n2)CC1` [Example 18, N^2-(1-methylpiperidin-4-yl)-7-(trifluoromethyl)pyrido[2,3-d]pyrimidine-2,4-diamine], the Emax lay in the range of 100 to 3000% and the EC (100% of 200 uM G418 response) fell in the range of 10 to 100 µM.

For `CN1CCC(Nc2nc(N)c3ccc(-c4ccc(O)cc4)nc3n2)CC1` [Example 102], the Emax lay in the range of 100 to 3000% and the EC (100% of 200 uM G418 response) was in the range of 10 to 100 µM.

On to `CN1CCC(Nc2nc(N)c3ccc(-c4ccccc4C(=O)O)nc3n2)CC1` [Example 87], for which the Emax was in the range of 0 to 100% and the EC (100% of 200 uM G418 response) was over 100 µM.

For `CN1CCC(Nc2nc(N)c3ccc(-c4ccc(C(N)=O)cc4)nc3n2)CC1` [Example 51], the Emax lay in the range of 0 to 100% and the EC (100% of 200 uM G418 response) was over 100 µM.

Take `CN1CCC(Nc2nc(N)c3cc(OC4COC4)cnc3n2)CC1` [Example 28, N^2-(1-methylpiperidin-4-yl)-6-(oxetan-3-yloxy)pyrido[2,3-d]pyrimidine-2,4-diamine]: the Emax lay within 0 to 100% and the EC (100% of 200 uM G418 response) is over 100 µM.

With `Cc1cc(C)c2c(N)nc(NCCCN3CC4(CCOC4)C3)nc2n1` [Example 187], the Emax was 100 to 3000% and the EC (100% of 200 uM G418 response) was in the range of 10 to 100 µM.

Turning to `Cc1ccc(CN2CCC(Nc3nc(N)c4c(C)cc(C)nc4n3)CC2)c(O)c1` [Example 540], the Emax fell in the range of 100 to 3000% and the EC (100% of 200 uM G418 response) fell in the range of 1 to 10 µM.

Regarding `CNc1nc(N[C@@H]2CCN(C)C2)nc2nc(C)cc(C)c12` [Example 327], the Emax lay in the range of 100 to 3000% and the EC (100% of 200 uM G418 response) fell in the range of 1 to 10 µM.
